Bridge positions count the residues as written; N and C are the ends. Square brackets hold non-standard residues; d marks the D form. Peptide text beside a SMILES is read from it. * marks the point of attachment. 5FAM = O=C1OC2(c3ccc(O)cc3Oc3cc(O)ccc32)c2ccc(C(=O)*)cc21; R8 = C=CCCCCCC[C@@](C)(N)C(=O)O; S5 = C=CCCC[C@](C)(N)C(=O)O; Nle = CCCC[C@H](N)C(=O)O
Legend:
[1] = tested on: Expi293 cells; settings: percentage of Helicons in cells after treatment and wash; Expi293 cells 1x10^6 cells/mL, 22 hours, 37°C; washed twice with DPBS; MS quantitation, single-point calibration; n=2, mean ± SD
[2] = tested on: Expi293 cells; settings: luminescence at Tfinal (22 hours) divided by Tinitial, measure of ATP levels, reflective of cell health

| SMILES | Helicon in cells ± SD (%) [1] [%] | CellTiter-Glo fold change ± SD [2] |
| --- | --- | --- |
| CC(C)C[C@H](NC(=O)[C@H](C)NC(=O)CNC(=O)[C@H](CCCCN)NC(=O)[C@H](CCCNC(=N)N)NC(=O)[C@H](C)NC(=O)[C@H](Cc1ccccc1)NC(=O)[C@H](CCCNC(=N)N)NC(=O)[C@H](CCC(N)=O)NC(=O)c1ccc2c(c1)C(=O)OC21c2ccc(O)cc2Oc2cc(O)ccc21)C(=O)N[C@@H](CCCNC(=N)N)C(=O)N[C@@H](CCC(N)=O)C(=O)N[C@@H](CCCCN)C(=O)N[C@@H](CC(N)=O)C(=O)N[C@H](C(N)=O)C(C)C [FP47831, reference compound] (5FAM-QRFARKGALRQKNV-NH2) | 0.0 ± 0.0 | 1.1 ± 0.02 |
| CC(=O)N[C@@H](CC(C)C)C(=O)N[C@H](C(=O)N[C@@H](Cc1ccccc1)C(=O)N[C@]1(C)CCCCCCC=CCCC[C@@](C)(C(=O)N[C@@H](CO)C(=O)N[C@@H](C)C(=O)N[C@@H](C)C(N)=O)NC(=O)[C@H](CC2CCC2)NC(=O)[C@H](CCC(N)=O)NC(=O)[C@H](C)NC(=O)[C@H](Cc2c[nH]c3ccccc23)NC(=O)[C@H](Cc2ccc(O)cc2)NC(=O)[C@H](CCC(=O)O)NC1=O)[C@@H](C)O [FP01413, reference compound] | 3.7 ± 0.4 | 1.2 ± 0.07 |
| CCCC[C@H](NC(=O)[C@@H](NC(C)=O)[C@@H](C)CC)C(=O)N[C@@H](C)C(=O)N[C@]1(C)CCCCCCC=CCCC[C@@](C)(C(=O)N[C@@H](CCC(N)=O)C(=O)N[C@@H](Cc2ccc(O)cc2)C(=O)N[C@@H](CC(N)=O)C(N)=O)NC(=O)[C@H](Cc2c[nH]c3ccccc23)NC(=O)[C@H](Cc2ccccc2)NC(=O)[C@H](C)NC(=O)[C@H](C)NC(=O)[C@H](CCC(N)=O)NC(=O)[C@H](Cc2ccc(O)cc2)NC1=O [FP08024] (Ac-I[Nle]A[R8]YQAAFW[S5]QYN-NH2; staple 4-11) | 6.5 ± 0.5 | 1.2 ± 0.00 |
| CC[C@H](C)[C@H](NC(=O)[C@H](Cc1ccc(O)cc1)NC(=O)[C@H](CCC(N)=O)NC(=O)[C@]1(C)CCCC=CCCCCCC[C@@](C)(NC(=O)[C@H](Cc2c[nH]cn2)NC(=O)[C@@H](NC(=O)[C@@H](NC(C)=O)[C@@H](C)CC)[C@@H](C)CC)C(=O)N[C@@H](Cc2ccc(O)cc2)C(=O)N[C@@H](CCC(=O)O)C(=O)N[C@@H](C)C(=O)N[C@@H](C)C(=O)N[C@@H](Cc2ccccc2)C(=O)N[C@@H](Cc2ccccc2)C(=O)N1)C(N)=O [FP08012] (Ac-IIH[R8]YEAAFF[S5]QYI-NH2; staple 4-11) | 5.4 ± 0.9 | 1.1 ± 0.04 |
| CC[C@H](C)[C@H](NC(C)=O)C(=O)N[C@@H](CC(C)C)C(=O)N[C@@H](CCC(N)=O)C(=O)N[C@]1(C)CCCCCCC=CCCC[C@@](C)(C(=O)N[C@@H](Cc2c[nH]cn2)C(=O)N[C@@H](Cc2ccc(O)cc2)C(=O)N[C@@H](CCC(N)=O)C(N)=O)NC(=O)[C@H](CO)NC(=O)[C@H](Cc2ccccc2)NC(=O)[C@H](C)NC(=O)[C@H](C)NC(=O)[C@H](CCC(=O)O)NC(=O)[C@H](Cc2ccc(O)cc2)NC1=O [FP07859] (Ac-ILQ[R8]YEAAFS[S5]HYQ-NH2; staple 4-11) | 0.1 ± 0.0 | 1.2 ± 0.02 |
| CCCC[C@H](NC(=O)[C@@H](NC(C)=O)C(C)C)C(=O)N[C@@H](CCC(N)=O)C(=O)N[C@]1(C)CCCCCCC=CCCC[C@@](C)(C(=O)N[C@@H](Cc2c[nH]cn2)C(=O)N[C@@H](Cc2ccc(O)cc2)C(=O)N[C@H](C(N)=O)C(C)C)NC(=O)[C@H]([C@@H](C)CC)NC(=O)[C@H](Cc2ccccc2)NC(=O)[C@H](C)NC(=O)[C@H](C)NC(=O)[C@H](CCC(=O)O)NC(=O)[C@H](Cc2ccc(O)cc2)NC1=O [FP07863] (Ac-V[Nle]Q[R8]YEAAFI[S5]HYV-NH2; staple 4-11) | 23.5 ± 6.5 | 1.2 ± 0.02 |
| CCCC[C@H](NC(=O)[C@@H](NC(C)=O)C(C)C)C(=O)N[C@@H](CCC(N)=O)C(=O)N[C@]1(C)CCCCCCC=CCCC[C@@](C)(C(=O)N[C@@H](Cc2c[nH]cn2)C(=O)N[C@@H](Cc2ccc(O)cc2)C(=O)N[C@H](C(N)=O)C(C)C)NC(=O)[C@H]([C@@H](C)CC)NC(=O)[C@H](Cc2ccccc2)NC(=O)[C@H](C)NC(=O)[C@H](C)NC(=O)[C@H](CCC(N)=O)NC(=O)[C@H](Cc2ccc(O)cc2)NC1=O [FP07872] (Ac-V[Nle]Q[R8]YQAAFI[S5]HYV-NH2; staple 4-11) | 11.7 ± 1.6 | 1.1 ± 0.02 |
| CC[C@H](C)[C@H](NC(C)=O)C(=O)N[C@@H](CC(C)C)C(=O)N[C@@H](CCC(N)=O)C(=O)N[C@]1(C)CCCCCCC=CCCC[C@@](C)(C(=O)N[C@@H](Cc2c[nH]cn2)C(=O)N[C@@H](Cc2ccc(O)cc2)C(=O)N[C@@H](CCC(N)=O)C(N)=O)NC(=O)[C@H](CO)NC(=O)[C@H](Cc2ccccc2)NC(=O)[C@H](C)NC(=O)[C@H](C)NC(=O)[C@H](CCC(=O)O)NC(=O)[C@H](Cc2ccc(O)cc2)NC1=O [FP07860] (Ac-ILQ[R8]YEAAFS[S5]HYQ-NH2; staple 4-11) | 0.3 ± 0.0 | 1.2 ± 0.03 |
| CCCC[C@H](NC(=O)[C@@H](NC(C)=O)C(C)C)C(=O)N[C@@H](CCC(=O)O)C(=O)N[C@]1(C)CCCCCCC=CCCC[C@@](C)(C(=O)N[C@@H](Cc2c[nH]cn2)C(=O)N[C@@H](Cc2ccc(O)cc2)C(=O)N[C@H](C(N)=O)C(C)C)NC(=O)[C@H]([C@@H](C)CC)NC(=O)[C@H](Cc2ccccc2)NC(=O)[C@H](C)NC(=O)[C@H](C)NC(=O)[C@H](CCC(N)=O)NC(=O)[C@H](Cc2ccc(O)cc2)NC1=O [FP07868] (Ac-V[Nle]E[R8]YQAAFI[S5]HYV-NH2; staple 4-11) | 10.3 ± 1.4 | 1.2 ± 0.10 |
| CCCC[C@H](NC(=O)[C@H](Cc1ccc(O)cc1)NC(=O)[C@H](CCC(N)=O)NC(=O)[C@]1(C)CCCC=CCCCCCC[C@@](C)(NC(=O)[C@H](CCC(=O)O)NC(=O)[C@H](CC(C)C)NC(=O)[C@@H](NC(C)=O)[C@@H](C)CC)C(=O)N[C@@H](Cc2ccc(O)cc2)C(=O)N[C@@H](CCC(=O)O)C(=O)N[C@@H](C)C(=O)N[C@@H](C)C(=O)N[C@@H](Cc2ccccc2)C(=O)N[C@@H](CCC(=O)O)C(=O)N1)C(N)=O [FP08018] (Ac-ILE[R8]YEAAFE[S5]QY[Nle]-NH2; staple 4-11) | 1.0 ± 0.1 | 1.1 ± 0.05 |
| CCCC[C@H](NC(=O)[C@@H](NC(C)=O)C(C)C)C(=O)N[C@@H](CCC(=O)O)C(=O)N[C@]1(C)CCCCCCC=CCCC[C@@](C)(C(=O)N[C@@H](Cc2c[nH]cn2)C(=O)N[C@@H](Cc2ccc(O)cc2)C(=O)N[C@H](C(N)=O)C(C)C)NC(=O)[C@H]([C@@H](C)CC)NC(=O)[C@H](Cc2ccccc2)NC(=O)[C@H](C)NC(=O)[C@H](C)NC(=O)[C@H](CCC(=O)O)NC(=O)[C@H](Cc2ccc(O)cc2)NC1=O [FP07856] (Ac-V[Nle]E[R8]YEAAFI[S5]HYV-NH2; staple 4-11) | 15.5 ± 0.9 | 1.3 ± 0.12 |
| CCCC[C@H](NC(=O)[C@@H](NC(C)=O)C(C)C)C(=O)N[C@@H](CCC(=O)O)C(=O)N[C@]1(C)CCCCCCC=CCCC[C@@](C)(C(=O)N[C@@H](Cc2c[nH]cn2)C(=O)N[C@@H](Cc2ccc(O)cc2)C(=O)N[C@H](C(N)=O)C(C)C)NC(=O)[C@H]([C@@H](C)CC)NC(=O)[C@H](Cc2ccccc2)NC(=O)[C@H](C)NC(=O)[C@H](C)NC(=O)[C@H](CCC(N)=O)NC(=O)[C@H](Cc2ccc(O)cc2)NC1=O [FP07867] (Ac-V[Nle]E[R8]YQAAFI[S5]HYV-NH2; staple 4-11) | 8.6 ± 0.4 | 1.2 ± 0.03 |
| CCCC[C@H](NC(=O)[C@@H](NC(C)=O)C(C)C)C(=O)N[C@@H](CCC(=O)O)C(=O)N[C@]1(C)CCCCCCC=CCCC[C@@](C)(C(=O)N[C@@H](Cc2c[nH]cn2)C(=O)N[C@@H](Cc2ccc(O)cc2)C(=O)N[C@H](C(N)=O)C(C)C)NC(=O)[C@H]([C@@H](C)CC)NC(=O)[C@H](Cc2ccccc2)NC(=O)[C@H](C)NC(=O)[C@H](C)NC(=O)[C@H](CCC(=O)O)NC(=O)[C@H](Cc2ccc(O)cc2)NC1=O [FP07855] (Ac-V[Nle]E[R8]YEAAFI[S5]HYV-NH2; staple 4-11) | 16.4 ± 0.6 | 1.2 ± 0.10 |
| CCCC[C@H](NC(=O)[C@@H](NC(C)=O)C(C)C)C(=O)N[C@@H](CCC(N)=O)C(=O)N[C@]1(C)CCCCCCC=CCCC[C@@](C)(C(=O)N[C@@H](Cc2c[nH]cn2)C(=O)N[C@@H](Cc2ccc(O)cc2)C(=O)N[C@H](C(N)=O)C(C)C)NC(=O)[C@H]([C@@H](C)CC)NC(=O)[C@H](Cc2ccccc2)NC(=O)[C@H](C)NC(=O)[C@H](C)NC(=O)[C@H](CCC(N)=O)NC(=O)[C@H](Cc2ccc(O)cc2)NC1=O [FP07871] (Ac-V[Nle]Q[R8]YQAAFI[S5]HYV-NH2; staple 4-11) | 7.0 ± 0.3 | 1.2 ± 0.03 |
| CCCC[C@H](NC(=O)[C@@H](NC(C)=O)C(C)C)C(=O)N[C@@H](CCC(N)=O)C(=O)N[C@]1(C)CCCCCCC=CCCC[C@@](C)(C(=O)N[C@@H](Cc2c[nH]cn2)C(=O)N[C@@H](Cc2ccc(O)cc2)C(=O)N[C@H](C(N)=O)C(C)C)NC(=O)[C@H]([C@@H](C)CC)NC(=O)[C@H](Cc2ccccc2)NC(=O)[C@H](C)NC(=O)[C@H](C)NC(=O)[C@H](CCC(=O)O)NC(=O)[C@H](Cc2ccc(O)cc2)NC1=O [FP07864] (Ac-V[Nle]Q[R8]YEAAFI[S5]HYV-NH2; staple 4-11) | 18.5 ± 11.4 | 1.1 ± 0.05 |
| CCCC[C@H](NC(=O)[C@H](Cc1ccc(O)cc1)NC(=O)[C@H](CCC(N)=O)NC(=O)[C@]1(C)CCCC=CCCCCCC[C@@](C)(NC(=O)[C@H](CCC(=O)O)NC(=O)[C@H](CC(C)C)NC(=O)[C@@H](NC(C)=O)[C@@H](C)CC)C(=O)N[C@@H](Cc2ccc(O)cc2)C(=O)N[C@@H](CCC(=O)O)C(=O)N[C@@H](C)C(=O)N[C@@H](C)C(=O)N[C@@H](Cc2ccccc2)C(=O)N[C@@H](CCC(=O)O)C(=O)N1)C(N)=O [FP08017] (Ac-ILE[R8]YEAAFE[S5]QY[Nle]-NH2; staple 4-11) | 0.6 ± 0.1 | 1.2 ± 0.01 |

— article PMC9907135 (Proceedings of the National Academy of Sciences of the …, 2022)
